Values quoted from earlier work in patent publication US20030060503A1, “Nutritional supplements for mature pets” (Juvenon, Inc., priority 2000, published 2003).
Like-named read-outs stand apart in the source and are kept apart here.

Legend:
[1] = tested on: carnitine-acetyl-carnitine exchange across the inner mitochondrial membrane
[2] = daily supplements of up to 200 mg for 6-12 months and 100 mg daily for up to 6 y
[3] = tested on: programmed cell death, or apoptosis; settings: through its action in the mitochondria
aged rats = settings: supplementation
oxidant production = settings: carnitine supplementation
skeletal muscle = settings: older individuals (40-73), 20 g/day, one week

Compound: C[N+](C)(C)C[C@H](O)CC(=O)[O-] [L-carnitine]
- age-related decrease of carnitine-acetyl-carnitine exchange activity [1]: slow or reverse this age-related dysfunction

Compound: COC1=C(OC)C(=O)C(C/C=C(\C)CC/C=C(\C)CC/C=C(\C)CC/C=C(\C)CC/C=C(\C)CC/C=C(\C)CC/C=C(\C)CC/C=C(\C)CC/C=C(\C)CCC=C(C)C)=C(C)C1=O [Q10, coenzyme Q10]
- adverse effects [2]: No important adverse effects
- programmed cell death (apoptosis) [3]: appears to block programmed cell death
- recovery of function in older hearts (senescent myocardium): corrected the age-specific diminished recovery of function in older hearts
- tolerance of senescent myocardium to aerobic and ischemic stress (senescent myocardium; human atrial tissue and rats): improves the tolerance of the senescent myocardium to aerobic and ischemic stress

Compound: O=C(O)CCCC[C@@H]1CCSS1 [R-α-lipoic acid]
- ambulatory activity (aged rats; aged rats): triple the ambulatory activity of aged rats
- age-related increase in oxidants (aged rats): significantly lower the age-related increase in oxidants
- glutathione and ascorbic acid levels (aged rats): restore glutathione and ascorbic acid levels to youthful levels
- mitochondrial membrane potential (aged rats): restore the age-related decline in mitochondrial membrane potential
- oxygen consumption (aged rats): reverse the age-related decrease in oxygen consumption

Compound: C[N+](C)(C)CC(O)CC(=O)[O-] (centres unmarked) [carnitine]
- cell antioxidants (oxidant production): decreased cell antioxidants markedly
- increase in oxidant production (oxidant production): 30%

Compound: CN(CC(=O)O)C(=N)N [creatine]
- safety (1.5 g-25 g/day for at least a year): safe
- adverse effects (athletes, doses up to 75 grams a day for years): without known adverse effects, aside from weight gain
- skeletal muscle strength and endurance (skeletal muscle): increased skeletal muscle strength and endurance

Compound: COc1c(O)c(C)c(C/C=C(\C)CC/C=C(\C)CC/C=C(\C)CC/C=C(\C)CC/C=C(\C)CC/C=C(\C)CC/C=C(\C)CC/C=C(\C)CC/C=C(\C)CCC=C(C)C)c(O)c1OC [ubiquinol-10]
- oxidative damage to DNA (human lymphocytes): appears to protect human lymphocytes from oxidative damage to DNA

Compound: acyl-L-carnitine
- age-related decrease of carnitine-acetyl-carnitine exchange activity [1]: slow or reverse this age-related dysfunction
